According to patent US10722518B2, “Oxazine derivative for use in the treatment or prevention of cerebral amyloid angiopathy” (Novartis AG, priority 2016, dated 2020):
Like-named read-outs stand apart in the source and are kept apart here.

Key:
[1] = both, APOE4-TR, mouse, in vivo
Procedure: Vehicle or compound was given by oral administration in a volume of 10 ml/kg once. Vehicle: 0.1% Tween80 in 0.5% Methylcellulose in water.
The right brain was fixed in 4% paraformaldehyde, washed in PBS and then embedded in paraffin for possible future histological analyses.

Aβ42 = experiment: Chronic treatment of APP23 mice: Triton TX-100 soluble Aβ42 in brain; type: in vivo, mouse
Procedure: Frozen mouse forebrains were weighed and homogenized in 9 volumes (w/v) of ice-cold TBS-Complete (20 mM Tris-HCl pH 7.4, 137 mM NaCl, 1× Complete [Protease Inhibitor Cocktail Tablets: 1 836 145, Roche Diagnostics GmbH, Penzberg, Germany]) by sonication (90% duty cycle, output control 5, 40-55 pulses, [Sonifier 450, Branson]). After homogenization several 50 μl aliquots were prepared for analysis and were stored at −80° C.
Human Aβ40 and 42 in mice was determined with the Meso Scale Discovery (MSD) 96-well MULTI-ARRAY human/rodent (6E10) Aβ40/42 Assay (Meso Scale Discovery, Rockville, Md., USA) as described in [RD-2010-00284]. The assay was done according to the manufacturer's instructions except for the calibration curve and the sample preparations. […]
The calibration curve was prepared in a corresponding dilution of 1% Blocker A solution spiked with synthetic Aβ1-40 peptide (1.56-100 pg/ml) except for non-transgenic mouse brain samples: In this case, the calibration curve was prepared in a correspondingly diluted APP knockout mouse forebrain spiked with synthetic Aβ1-40 peptide (1.56-100 pg/ml). […] The relative units for samples and standards were imported into SOFTmax PRO 4.0 for calculation of standard curves and quantification of samples. […]

APP23 mice = experiment: 13-week oral safety study in aged APP23 mice: post-mortem macroscopic and brain microscopic examination (H&E, Perls' Prussian blue); type: in vivo, mouse
Excerpt: Sections of brain were collected at necropsy from all scheduled animals. […] Rest of the brain was fixed in 10% neutral-buffered formalin.
Four brain sections were processed and stained with hematoxylin and eosin (H&E) and Perls' Prussian blue for hemosiderin deposits, levels 2, 3, 4, as described in Bolon B et al., 2013, and one additional slide at hypothalamus level (level 2′).
Procedure for brain collection: Cerebellum was separated from cerebrum. Remaining cerebrum (from the anterior to level 5) was transferred into formalin for pathology.
Brain sections stained with haematoxylin and eosin and with Perls' Prussian blue, were examined under a light microscope. The distribution, size and staining intensity of hemosiderin deposits in Perls' Prussian blue-stained sections were assessed based on the grading scheme in Table 37.

[2] = aged APP23 mice, brain, H&E, after 3 months treatment
[3] = aged APP23 mice, brain, H&E, after 3 months treatment, Grade 1 = minimal
[4] = aged APP23 mice, brain, H&E, after 3 months treatment, grade 2 = slight
[5] = aged APP23 mice, brain, after 3 months treatment
[6] = aged APP23 mice, brain, after 3 months treatment, Grade 1 = minimal
[7] = aged APP23 mice, brain, after 3 months treatment, grade 2 = slight

With `C[C@@]1(c2nc(NC(=O)c3ncc(C(F)(F)F)cc3Cl)ccc2F)CO[C@@](C)(C(F)(F)F)C(N)=N1` [Compound 1, N-(6-((3R,6R)-5-amino-3,6-dimethyl-6-(trifluoromethyl)-3,6-dihydro-2H-1,4-oxazin-3-yl)-5-fluoropyridin-2-yl)-3-chloro-5-(trifluoromethyl)picolinamide] the “exposure reduction 4 h/24 h” value [1] was 2-5 fold, the “AUCbrain (AUC0-24 h)” value ([1]; 3 umol/kg) was 8.67 µmol·h/kg and the “AUCbrain (AUC0-24 h)” value ([1]; 10 umol/kg) was 15.83 µmol·h/kg. The “AUCbrain (AUC0-24 h)” value ([1]; 30 umol/kg) was 49.82 µmol·h/kg, the “Aβ42 change vs vehicle (TX-100 soluble)” value (Aβ42; 0.03 g/kg vs vehicle) was −20.1% and the “Aβ42 change vs vehicle (TX-100 soluble)” value (Aβ42; 0.3 g/kg vs vehicle) was −77.3%. For the same molecule, the Blood vessel inflammation (APP23 mice; 3 months treatment) was “least marked”, the “mineralisation of plaques in the thalamus” value (APP23 mice; 3 months treatment) was “no indication of an effect” and the “thrombus formation in affected blood vessels or small areas of previous necrosis (infarct)” value (APP23 mice; 3 months treatment) was “not”. For the same molecule, the “extent of plaque formation” value (APP23 mice; 3 months treatment, compared to the other groups) was “appeared reduced in some”, the “Amyloid plaques, % affected” value (APP23 mice; [2]) was 100% and the “Haemorrhage, % affected” value (APP23 mice; [2]) was 7%. For the same molecule, the “Inflammation, vessel, % affected” value (APP23 mice; [2]) was 27%, the “Haemorrhage, number of animals with Grade 1” value (APP23 mice; [3]) was 1 and the “Inflammation, vessel, number of animals with Grade 1” value (APP23 mice; [3]) was 4. For the same molecule, the “Haemorrhage, number of animals with Grade 2” value (APP23 mice; [4]) was 0, the “Inflammation, vessel, number of animals with Grade 2” value (APP23 mice; [4]) was 0 and the “Amyloid plaques, number of animals with Grade 2” value (APP23 mice; aged APP23 mice, brain, H&E, after 3 months treatment, grade 2 = slight (notably fewer plaques than controls)) was 4. The “Amyloid plaques, number of animals with Grade 3” value (APP23 mice; aged APP23 mice, brain, H&E, after 3 months treatment, grade 3 = moderate (extent in controls)) was 11, the “Haemosiderin (Perls' staining), % affected” value (APP23 mice; [5]) was 47% and the “Infarct, % affected” value (APP23 mice; [5]) was 0%. For the same molecule, the “Mineralisation, % affected” value (APP23 mice; [5]) was 13%, the “Thrombus, % affected” value (APP23 mice; [5]) was 0% and the “Haemosiderin (Perls' staining), number of animals with Grade 1” value (APP23 mice; [6]) was 7. The “Infarct, number of animals with Grade 1” value (APP23 mice; [6]) was 0, the “Mineralisation, number of animals with Grade 1” value (APP23 mice; [6]) was 2 and the “Thrombus, number of animals with Grade 1” value (APP23 mice; [6]) was 0. For the same molecule, the “Haemosiderin (Perls' staining), number of animals with Grade 2” value (APP23 mice; [7]) was 0, the “Mineralisation, number of animals with Grade 2” value (APP23 mice; [7]) was 0 and the “Thrombus, number of animals with Grade 2” value (APP23 mice; [7]) was 0. For the same molecule, the “Haemosiderin (Perls' staining), number of animals with Grade 3” value (APP23 mice; aged APP23 mice, brain, after 3 months treatment, grade 3 = moderate) was 0.
